The values below come from patent US20250115583A1, “BICYCLIC INDAZOLE GLUCOCORTICOID RECEPTOR ANTAGONISTS” (Corcept Therapeutics Incorporated, priority 2021, published 2025).

The assay deals with glucocorticoid receptor (Homo sapiens (Human), UniProt P04150). Nature of the assay: HepG2 TAT assay: inhibition of dexamethasone-induced tyrosine aminotransferase (TAT) activity. Type of assay: cell-based. To be noted: HepG2 cells, challenge of 100 nM dexamethasone, 18-24 hr; IC50 converted to Ki by Cheng and Prusoff equation. In a few lines: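 Cells lysed 15 min at 4 °C; TAT enzyme reaction 2 h at 37 °C, stopped with KOH, 30 min further at 37 °C. Inhibition fitted to 4-parameter logistic.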
glucocorticoid receptor, sequence (P04150 whole entry): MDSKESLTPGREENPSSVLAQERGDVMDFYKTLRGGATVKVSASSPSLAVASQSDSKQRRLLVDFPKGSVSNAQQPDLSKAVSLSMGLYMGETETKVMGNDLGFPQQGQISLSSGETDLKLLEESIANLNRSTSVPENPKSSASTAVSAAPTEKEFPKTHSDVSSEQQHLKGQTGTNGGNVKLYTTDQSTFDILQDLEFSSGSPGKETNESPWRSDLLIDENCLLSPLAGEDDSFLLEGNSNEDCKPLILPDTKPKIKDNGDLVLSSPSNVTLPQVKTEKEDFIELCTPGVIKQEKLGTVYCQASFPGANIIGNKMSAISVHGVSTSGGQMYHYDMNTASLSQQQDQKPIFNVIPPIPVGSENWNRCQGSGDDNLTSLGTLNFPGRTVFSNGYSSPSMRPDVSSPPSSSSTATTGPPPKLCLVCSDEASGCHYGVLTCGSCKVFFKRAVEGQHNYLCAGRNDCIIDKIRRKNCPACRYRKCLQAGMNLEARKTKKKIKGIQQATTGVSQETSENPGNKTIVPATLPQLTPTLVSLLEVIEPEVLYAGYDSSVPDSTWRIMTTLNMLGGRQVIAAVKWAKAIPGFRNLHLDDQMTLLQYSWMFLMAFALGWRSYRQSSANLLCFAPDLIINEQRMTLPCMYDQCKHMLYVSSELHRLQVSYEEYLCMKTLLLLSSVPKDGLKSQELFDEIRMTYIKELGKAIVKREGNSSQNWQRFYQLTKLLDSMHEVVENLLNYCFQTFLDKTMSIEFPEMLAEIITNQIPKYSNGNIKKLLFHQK

In general, Ki refers to the equilibrium dissociation constant of an inhibitor or competing ligand from its target. Take `CO[C@]1(c2ccccc2)C[C@@H]2CN(S(=O)(=O)c3cnn(C)c3)C[C@]2(c2cc3cnn(-c4ccc(F)cc4)c3cc2C)C1` [Example 5, 1-(4-fluorophenyl)-5-((3aR,5R,6aS)-5-methoxy-2-((1-methyl-1H-pyrazol-4-yl)sulfonyl)-5-phenylhexahydrocyclopenta[c]pyrrol-3a(1H)-yl)-6-methyl-1H-indazole]: the affinity, expressed as Ki, was 240 nM. `Cc1nc(C(=O)N2C[C@@H]3[C@@H](c4ccccc4)[C@]3(c3cc4cnn(-c5ccc(F)cc5)c4cc3C)C2)cs1` (single isomer, unassigned) [Example 153, (1-(1-(4-fluorophenyl)-6-methyl-1H-indazol-5-yl)-6-phenyl-3-azabicyclo[3.1.0]hexan-3-yl)(2-methylthiazol-4-yl)methanone] gave a Ki of 38 nM.

On to `Cc1cc2c(cnn2-c2ccc(F)cc2)cc1C12CC(Oc3ccccc3)CC1CN(S(C)(=O)=O)C2` (stereo not drawn) [Example 37, 1-(4-fluorophenyl)-6-methyl-5-(2-(methylsulfonyl)-5-phenoxyhexahydrocyclopenta[c]pyrrol-3a(1H)-yl)-1H-indazole], for which the affinity corresponds to a Ki of 170 nM. Compared with the last compound, the Ki is about 4.5-fold higher. `Cc1cc2c(cnn2-c2ccc(F)cc2)cc1[C@]12CN(S(=O)(=O)c3cnn(C)c3)C[C@H]1[C@@H]2c1cccc(Cl)c1` [Example 96]: the Ki amounted to 110 nM. Compound `Cc1cc2c(cnn2-c2ccc(F)cc2)cc1[C@@]12CN(C(=O)C3CCC3)C[C@@H]1[C@H]2c1ccccc1` (stereo in doubt) [Example 120, cyclobutyl(1-(1-(4-fluorophenyl)-6-methyl-1H-indazol-5-yl)-6-phenyl-3-azabicyclo[3.1.0]hexan-3-yl)methanone] registered a Ki of 52 nM. Turning to `CO[C@]1(c2ccccc2)C[C@H]2CN(S(=O)(=O)c3cnn(C)c3)C[C@@]2(c2cc3cnn(-c4ccc(F)cc4)c3cc2C)C1` [Example 8, 1-(4-fluorophenyl)-5-((3aS,5R,6aR)-5-methoxy-2-((1-methyl-1H-pyrazol-4-yl)sulfonyl)-5-phenylhexahydrocyclopenta[c]pyrrol-3a(1H)-yl)-6-methyl-1H-indazole], the affinity corresponds to a Ki of 310 nM. In turn, `Cc1cc2c(cnn2-c2ccc(F)cc2)cc1[C@@]12CN(C(=O)c3ccncc3)C[C@@H]1[C@H]2c1ccccc1` (single isomer, unassigned) [Example 165, (1-(1-(4-fluorophenyl)-6-methyl-1H-indazol-5-yl)-6-phenyl-3-azabicyclo[3.1.0]hexan-3-yl)(pyridin-4-yl)methanone] registered a Ki of 84 nM. `Cc1cc2c(cnn2-c2ccc(F)cc2)cc1C12CN(S(=O)(=O)c3cnn(C)n3)CC1C2c1ncco1` (stereo not drawn) [Example 133, 2-(1-(1-(4-fluorophenyl)-6-methyl-1H-indazol-5-yl)-3-((2-methyl-2H-1,2,3-triazol-4-yl)sulfonyl)-3-azabicyclo[3.1.0]hexan-6-yl)oxazole] showed a Ki of 260 nM. Compound `CCCn1cc(S(=O)(=O)N2CC3CC(Oc4ccccc4)CC3(c3cc4cnn(-c5ccc(F)cc5)c4cc3C)C2)cn1` (stereo not drawn) [Example 43] yielded a Ki of 41 nM. The same measure for `Cc1cc2c(cnn2-c2ccc(F)cc2)cc1[C@@]12CN(C(=O)c3ccnn3C)C[C@@H]1[C@H]2c1ccccc1` (stereo in doubt) [Example 161, (1-(1-(4-fluorophenyl)-6-methyl-1H-indazol-5-yl)-6-phenyl-3-azabicyclo[3.1.0]hexan-3-yl)(1-methyl-1H-pyrazol-5-yl)methanone]: 61 nM; for `CC#CC1(OC)CC2CN(S(=O)(=O)c3cnn(C)c3)CC2(c2cc3cnn(-c4ccc(F)cc4)c3cc2C)C1` (stereo not drawn) [Example 16]: 270 nM.

Compound `Cc1cc2c(cnn2-c2ccc(F)cc2)cc1[C@@]12CN(S(=O)(=O)C3CC3)C[C@@H]1[C@H]2c1ccccc1` [Example 85] showed a Ki of 21 nM. Consider `COC(=O)N1C[C@@H]2[C@@H](c3ccccc3)[C@]2(c2cc3cnn(-c4ccc(F)cc4)c3cc2C)C1` (single isomer, unassigned) [Example 118, methyl 1-(1-(4-fluorophenyl)-6-methyl-1H-indazol-5-yl)-6-phenyl-3-azabicyclo[3.1.0]hexane-3-carboxylate], for which the Ki was 40 nM.

`Cc1cc2c(cnn2-c2ccc(F)cc2)cc1[C@@]12CN(C(=O)c3ccc(C4CC4)cn3)C[C@@H]1[C@H]2c1ccccc1` (single isomer, unassigned) [Example 167, (5-cyclopropylpyridin-2-yl)(1-(1-(4-fluorophenyl)-6-methyl-1H-indazol-5-yl)-6-phenyl-3-azabicyclo[3.1.0]hexan-3-yl)methanone] had a Ki of 21 nM. The value for `Cc1cc2c(cnn2-c2ccc(F)cc2)cc1[C@@]12CN(C(=O)c3cc(C(F)(F)F)ccn3)C[C@@H]1[C@H]2c1ccccc1` (single isomer, unassigned) [Example 150, (1-(1-(4-fluorophenyl)-6-methyl-1H-indazol-5-yl)-6-phenyl-3-azabicyclo[3.1.0]hexan-3-yl)(4-(trifluoromethyl)pyridin-2-yl)methanone] was 18 nM. For the compound `Cc1cc2c(cnn2-c2ccc(F)cc2)cc1[C@@]12CN(C(=O)c3cccnc3)C[C@@H]1[C@H]2c1ccccc1` (single isomer, unassigned) [Example 112, (1-(1-(4-fluorophenyl)-6-methyl-1H-indazol-5-yl)-6-phenyl-3-azabicyclo[3.1.0]hexan-3-yl)(pyridin-3-yl)methanone], the affinity, expressed as Ki, was 65 nM. This Ki is about 3.6-fold higher than that of the compound before. The same measure for `Cc1cc2c(cnn2-c2ccc(F)cc2)cc1[C@@]12CN(C(=O)c3cc(C)n(C)n3)C[C@@H]1[C@H]2c1ccccc1` (stereo in doubt) [Example 177, (1,5-dimethyl-1H-pyrazol-3-yl)(1-(1-(4-fluorophenyl)-6-methyl-1H-indazol-5-yl)-6-phenyl-3-azabicyclo[3.1.0]hexan-3-yl)methanone]: 23 nM.

In turn, `Cc1cc2c(cnn2-c2ccc(F)cc2)cc1[C@@]12CN(S(=O)(=O)c3cnn(C)n3)C[C@@H]1[C@H]2COc1ccccc1` (stereo in doubt) [Example 49, 1-(4-fluorophenyl)-6-methyl-5-(3-((2-methyl-2H-1,2,3-triazol-4-yl)sulfonyl)-6-(phenoxymethyl)-3-azabicyclo[3.1.0]hexan-1-yl)-1H-indazole] showed a Ki of 120 nM.

Compound `CO[C@]1(c2ccccc2)C[C@@H]2CN(C(C)=O)C[C@]2(c2cc3cnn(-c4ccc(F)cc4)c3cc2C)C1` [Example 33] registered a Ki of 220 nM.

`CC(=O)N1CC2CC(Oc3ccccc3)CC2(c2cc3cnn(-c4ccc(F)cc4)c3cc2C)C1` (stereo not drawn) [Example 40] displayed a Ki of 420 nM. The same measure for `Cc1cc2c(cnn2-c2ccc(F)cc2)cc1[C@@]12CN(S(=O)(=O)NCC(C)C)C[C@@H]1[C@H]2c1ccccc1` [Example 100]: 82 nM.

On to `Cc1cc2c(cnn2-c2ccc(F)cc2)cc1[C@@]12CN(S(=O)(=O)c3cnn(C)n3)C[C@@H]1[C@H]2Cn1cccn1` (stereo in doubt) [Example 132, 5-(6-((1H-pyrazol-1-yl)methyl)-3-((2-methyl-2H-1,2,3-triazol-4-yl)sulfonyl)-3-azabicyclo[3.1.0]hexan-1-yl)-1-(4-fluorophenyl)-6-methyl-1H-indazole], for which affinity was put at a Ki of 350 nM. For `Cc1cc2c(cnn2-c2ccc(F)cc2)cc1C12CC(Oc3ccccc3)CC1CN(S(=O)(=O)c1cnn(C)c1)C2` (stereo not drawn) [Example 44], affinity was put at a Ki of 370 nM. The Ki values of the last two compounds are within 1.5-fold of each other.

As for `Cc1cc2c(cnn2-c2ccc(F)cc2)cc1[C@@]12CN(S(=O)(=O)C(C)C)C[C@@H]1[C@H]2c1ccccc1` [Example 101], affinity was put at a Ki of 41 nM. `Cc1cc2c(cnn2-c2ccc(F)cc2)cc1[C@@]12CN(S(=O)(=O)N3CCC3)C[C@@H]1[C@H]2c1ccccc1` [Example 105] came in with a Ki of 14 nM.

Regarding `Cc1cc2c(cnn2-c2ccc(F)cc2)cc1[C@@]12CN(C(=O)c3ccccc3)C[C@@H]1[C@@]2(C)c1ccccc1` (stereo in doubt) [Example 183, (1-(1-(4-fluorophenyl)-6-methyl-1H-indazol-5-yl)-6-methyl-6-phenyl-3-azabicyclo[3.1.0]hexan-3-yl)(phenyl)methanone], the Ki was 37 nM. Turning to `Cc1cc2c(cnn2-c2ccc(F)cc2)cc1[C@@]12CN(C(=O)c3ncc(F)cc3F)C[C@@H]1[C@H]2c1ccccc1` (stereo in doubt) [Example 157, (3,5-difluoropyridin-2-yl)(1-(1-(4-fluorophenyl)-6-methyl-1H-indazol-5-yl)-6-phenyl-3-azabicyclo[3.1.0]hexan-3-yl)methanone], affinity was put at a Ki of 18 nM. This Ki is about 2.1-fold lower than that of the compound before. As to `Cc1cc2c(cnn2-c2ccc(F)cc2)cc1C12CN(S(=O)(=O)c3cnn(C)c3)CC1CC(O)(c1ccccn1)C2` (stereo not drawn) [Example 15], the affinity corresponds to a Ki of 330 nM.

Turning to `CO[C@@]1(c2ccccc2)C[C@H]2CN(S(=O)(=O)c3cnn(C)n3)C[C@@]2(c2cc3cnn(-c4ccc(F)cc4)c3cc2C)C1` (stereo in doubt) [Example 19, 1-(4-fluorophenyl)-5-(5-methoxy-2-((2-methyl-2H-1,2,3-triazol-4-yl)sulfonyl)-5-phenylhexahydrocyclopenta[c]pyrrol-3a(1H)-yl)-6-methyl-1H-indazole], affinity was put at a Ki of 47 nM. Turning to `CCCn1ncc(S(=O)(=O)N2CC3CC(OC)(c4ccccc4)CC3(c3cc4cnn(-c5ccc(F)cc5)c4cc3C)C2)n1` (stereo not drawn) [Example 27], the affinity corresponds to a Ki of 78 nM.

Turning to `CCNC(=O)[C@@H]1[C@H]2CN(S(=O)(=O)c3cnn(C)n3)C[C@]21c1cc2cnn(-c3ccc(F)cc3)c2cc1C` [Example 65], affinity was put at a Ki of 430 nM. Consider `Cc1cc2c(cnn2-c2ccc(F)cc2)cc1[C@@]12CN(C(=O)c3ccccc3)C[C@@H]1[C@H]2Cc1ccccc1` (stereo in doubt) [Example 184, (6-benzyl-1-(1-(4-fluorophenyl)-6-methyl-1H-indazol-5-yl)-3-azabicyclo[3.1.0]hexan-3-yl)(phenyl)methanone], for which the Ki was found to be 860 nM. With `Cc1cc2c(cnn2-c2ccc(F)cc2)cc1[C@@]12CN(S(=O)(=O)CC(C)C)C[C@@H]1[C@H]2c1ccccc1` [Example 104], the Ki worked out at 30 nM. Compared with the last compound, the Ki is about 29-fold lower.
